The values that follow come from patent US8309552B2, “Immunomodulating heterocyclic compounds” (Medigene AG, priority 2003, dated 2012).

The EC50 is the midpoint of the concentration-response curve.

In the assay the target is T1, CD80-CD28 interaction (Homo sapiens, UniProt P33681).
T1 sequence (P33681 35-242 limits assumed): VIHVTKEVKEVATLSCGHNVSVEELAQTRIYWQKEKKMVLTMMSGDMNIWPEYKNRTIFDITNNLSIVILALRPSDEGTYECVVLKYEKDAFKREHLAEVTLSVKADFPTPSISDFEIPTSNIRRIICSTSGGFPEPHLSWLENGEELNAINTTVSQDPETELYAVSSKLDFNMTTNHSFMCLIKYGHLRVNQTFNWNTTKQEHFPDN
The assay is described as follows: Homogenous Time Resolved Fluorescence (HTRF) assay, cell free. In kind it is binding. The following applies: cell-free HTRF, compound concentration series 100 μM-1.7 nM, 4 hours at room temperature; read-out: Activity (EC50 in the HTRF assay). As to the method: Homogenous Time Resolved Fluorescence Assay
The examples described above were tested in a cell free Homogenous Time Resolved Fluorescence (HTRF) assay to determine their activity as inhibitors of the CD80-CD28 interaction.
In the assay, europium and allophycocyanin (APC) are associated with CD28 and CD80 indirectly (through antibody linkers) to form a complex, which brings the europium and APC into close proximity to generate a signal. The complex comprises the following six proteins: fluorescent label 1, linker antibody 1, CD28 fusion protein, CD80 fusion protein, linker antibody 2, and fluorescent label 2. The table below describes these reagents in greater detail.
On formation of the complex, europium and APC are brought into proximity and a signal is generated.
Non-specific interaction was measured by substituting a mouse Fab fragment (C215) for the CD80 mouse Fab fragment fusion protein (1.9 μg/ml). The assay was carried out in black 384 well plates in a final volume of 30 μl. Assay buffer: 50 mM Tris-HCl, 150 mM NaCl pH7.8, containing 0.1% BSA (w/v) added just prior to use.
Compounds were added to the above reagents in a concentration series ranging between 100 μM-1.7 nM. The reaction was incubated for 4 hours at room temperature. Dual measurements were made using a Wallac Victor 1420 Multilabel Counter. First measurement: excitation 340 nm, emission 665 nm, delay 50 μs, window time 200 μs. second measurement: excitation 340 nm, emission 615 nm, delay 50 μs, window time 200 μs. Counts were automatically corrected for fluorescence crossover, quenching and background. The EC50 activities of compounds tested are recorded as: EC50:*=>10 μM,**=1-10 μM,***=<1 μM.
For orientation: Time-resolved FRET reads energy transfer from a long-lived donor to a nearby acceptor.
Consider `CC1C(NC(=O)c2ccc(-n3[nH]c4c(nnc5ccccc54)c3=O)cc2)CC2CC1C2(C)C` (centres unmarked) [Example 122], for which the EC50 was above 10 µM.
As to `O=C(Nc1ccc(-n2[nH]c3c(nnc4ccccc43)c2=O)cc1)NC1CCN(Cc2ccccc2)CC1` [Example 123], the EC50 is 1 to 10 µM.
For the compound `CC(C)CC(C)NC(=O)Nc1ccc(-n2[nH]c3c(nnc4ccccc43)c2=O)cc1` (centres unmarked) [Example 124], the EC50 is above 10 µM.
In the case of `O=C(NCCN1CCCCC1)Nc1ccc(-n2[nH]c3c(nnc4ccccc43)c2=O)cc1` [Example 125], the EC50 fell in the range of 1 to 10 µM.
For `O=C(NCc1ccc(F)cc1)Nc1ccc(-n2[nH]c3c(nnc4ccccc43)c2=O)cc1` [Example 126], the EC50 was above 10 µM.
In the case of `O=C(Nc1ccc(-n2[nH]c3c(nnc4ccccc43)c2=O)cc1)NC1CCCCC1` [Example 127], the EC50 was above 10 µM.
Consider `CCOCCCNC(=O)Nc1ccc(-n2[nH]c3c(nnc4ccccc43)c2=O)cc1` [Example 128], for which the EC50 lay in the range of 1 to 10 µM.
Take `CN1CCN(CCCNC(=O)Nc2ccc(-n3[nH]c4c(nnc5ccccc54)c3=O)cc2)CC1` [Example 129]: the EC50 is below 1 µM.
`CN(C)CCNC(=O)Nc1ccc(-n2[nH]c3c(nnc4ccccc43)c2=O)cc1` [Example 130]: the EC50 was below 1 µM.
On to `C=CCNC(=O)Nc1ccc(-n2[nH]c3c(nnc4ccccc43)c2=O)cc1` [Example 131], for which the EC50 was below 1 µM.
With `O=C(NCCN1CCOCC1)Nc1ccc(-n2[nH]c3c(nnc4ccccc43)c2=O)cc1` [Example 132], the EC50 was below 1 µM.
Under `COCCCNC(=O)Nc1ccc(-n2[nH]c3c(nnc4ccccc43)c2=O)cc1` [Example 133] stands 1 to 10 µM.
As to `O=C(NCCCNC1CCCCC1)Nc1ccc(-n2[nH]c3c(nnc4ccccc43)c2=O)cc1` [Example 134], the 50% effective concentration (EC50) is below 1 µM.
For `CN1C(C)(C)CC(NC(=O)Nc2ccc(-n3[nH]c4c(nnc5ccccc54)c3=O)cc2)CC1(C)C` [Example 135], the EC50 fell in the range of 1 to 10 µM.
With `CC(CCCC(C)(C)O)NC(=O)Nc1ccc(-n2[nH]c3c(nnc4ccccc43)c2=O)cc1` (centres unmarked) [Example 137], the EC50 is 1 to 10 µM.
As to `CC(C)CNC(=O)Nc1ccc(-n2[nH]c3c(nnc4ccccc43)c2=O)cc1` [Example 138], the EC50 fell in the range of 1 to 10 µM.
For `COCCNC(=O)Nc1ccc(-n2[nH]c3c(nnc4ccccc43)c2=O)cc1` [Example 140], the EC50 lay in the range of 1 to 10 µM.
For the compound `CC(C)NCCNC(=O)Nc1ccc(-n2[nH]c3c(nnc4ccccc43)c2=O)cc1` [Example 141], the EC50 is below 1 µM.
Under `CNCCNC(=O)Nc1ccc(-n2[nH]c3c(nnc4ccccc43)c2=O)cc1` [Example 142] stands below 1 µM; under `CCNCCNC(=O)Nc1ccc(-n2[nH]c3c(nnc4ccccc43)c2=O)cc1` [Example 143], below 1 µM; under `CCCNCCNC(=O)Nc1ccc(-n2[nH]c3c(nnc4ccccc43)c2=O)cc1` [Example 144], below 1 µM.
Take `O=C(NCCOCCO)Nc1ccc(-n2[nH]c3c(nnc4ccccc43)c2=O)cc1` [Example 145]: the EC50 is below 1 µM.
Take `O=C(NCCO)Nc1ccc(-n2[nH]c3c(nnc4ccccc43)c2=O)cc1` [Example 146]: the EC50 was below 1 µM.
Regarding `O=C(NCCc1ccccc1)Nc1ccc(-n2[nH]c3c(nnc4ccccc43)c2=O)cc1` [Example 147], the EC50 is 1 to 10 µM.
Regarding `CC(C)NCCCNC(=O)Nc1ccc(-n2[nH]c3c(nnc4ccccc43)c2=O)cc1` [Example 148], the concentration giving a half-maximal response (EC50) is below 1 µM.
The value for `CC(C)OCCCNC(=O)Nc1ccc(-n2[nH]c3c(nnc4ccccc43)c2=O)cc1` [Example 149] was 1 to 10 µM; that for `O=C(NCCCO)Nc1ccc(-n2[nH]c3c(nnc4ccccc43)c2=O)cc1` [Example 150] was below 1 µM.
On to `O=C(NCCCCCO)Nc1ccc(-n2[nH]c3c(nnc4ccccc43)c2=O)cc1` [Example 151], for which the half-maximal effective concentration (EC50) lay in the range of 1 to 10 µM.
Turning to `O=C(NCCNc1cccc2ccccc12)Nc1ccc(-n2[nH]c3c(nnc4ccccc43)c2=O)cc1` [Example 152], the EC50 is above 10 µM.
For `O=C(Nc1ccc(-n2[nH]c3c(nnc4ccccc43)c2=O)cc1)NC1CCOC1=O` (centres unmarked) [Example 153], the EC50 lay in the range of 1 to 10 µM.
Regarding `COC(=O)CNC(=O)Nc1ccc(-n2[nH]c3c(nnc4ccccc43)c2=O)cc1` [Example 154], the half-maximal effective concentration (EC50) lay in the range of 1 to 10 µM.
For the compound `O=C(NCCc1ccc([N+](=O)[O-])cc1)Nc1ccc(-n2[nH]c3c(nnc4ccccc43)c2=O)cc1` [Example 155], the EC50 fell in the range of 1 to 10 µM.
With `CCOC(=O)CCNC(=O)Nc1ccc(-n2[nH]c3c(nnc4ccccc43)c2=O)cc1` [Example 156], the EC50 lay in the range of 1 to 10 µM.
Take `NC(=O)CNC(=O)Nc1ccc(-n2[nH]c3c(nnc4ccccc43)c2=O)cc1` [Example 157]: the EC50 fell in the range of 1 to 10 µM.
Turning to `CCOC(=O)C(C)NC(=O)Nc1ccc(-n2[nH]c3c(nnc4ccccc43)c2=O)cc1` (centres unmarked) [Example 158], the EC50 was 1 to 10 µM.
With `CCCCCCCCCCCCOCCCNC(=O)Nc1ccc(-n2[nH]c3c(nnc4ccccc43)c2=O)cc1` [Example 159], the EC50 was below 1 µM.
Under `CCCCOCCCNC(=O)Nc1ccc(-n2[nH]c3c(nnc4ccccc43)c2=O)cc1` [Example 160] stands above 10 µM; under `CSCCCNC(=O)Nc1ccc(-n2[nH]c3c(nnc4ccccc43)c2=O)cc1` [Example 161], 1 to 10 µM.
Turning to `CC(C)(C)OC(=O)NCCCCCCNC(=O)Nc1ccc(-n2[nH]c3c(nnc4ccccc43)c2=O)cc1` [Example 163], the EC50 fell in the range of 1 to 10 µM.
Turning to `CCOC(=O)C1CCCC1NC(=O)Nc1ccc(-n2[nH]c3c(nnc4ccccc43)c2=O)cc1` (centres unmarked) [Example 164], the EC50 is above 10 µM.
Take `C=C(C)CNC(=O)Nc1ccc(-n2[nH]c3c(nnc4ccccc43)c2=O)cc1` [Example 165]: the EC50 was 1 to 10 µM.
With `O=C(Nc1ccc(-n2[nH]c3c(nnc4ccccc43)c2=O)cc1)NC1CCOC1=O` (centres unmarked) [Example 166], the EC50 was 1 to 10 µM.
As for `CCC(C)NC(=O)Nc1ccc(-n2[nH]c3c(nnc4ccccc43)c2=O)cc1` (centres unmarked) [Example 167], the EC50 lay in the range of 1 to 10 µM.
Turning to `CCN(CC)CCCC(C)NC(=O)Nc1ccc(-n2[nH]c3c(nnc4ccccc43)c2=O)cc1` (centres unmarked) [Example 168], the concentration for a half-maximal effect (EC50) is below 1 µM.
With `O=C(Nc1ccc(-n2[nH]c3c(nnc4ccccc43)c2=O)cc1)NC1CN2CCC1CC2` (centres unmarked) [Example 169], the EC50 was below 1 µM.
In the case of `O=CCCNC(=O)Nc1ccc(-n2[nH]c3c(nnc4ccccc43)c2=O)cc1` [Example 170], the EC50 is above 10 µM.
`CC(O)CCNC(=O)Nc1ccc(-n2[nH]c3c(nnc4ccccc43)c2=O)cc1` (centres unmarked) [Example 171]: the EC50 was below 1 µM.
Turning to `COc1ccc2[nH]cc(CCNC(=O)Nc3ccc(-n4[nH]c5c(nnc6ccccc65)c4=O)cc3)c2c1` [Example 172], the EC50 was 1 to 10 µM.
Take `CC(C)C(C)NC(=O)Nc1ccc(-n2[nH]c3c(nnc4ccccc43)c2=O)cc1` (centres unmarked) [Example 173]: the EC50 was in the range of 1 to 10 µM.
In the case of `COCC(C)NC(=O)Nc1ccc(-n2[nH]c3c(nnc4ccccc43)c2=O)cc1` (centres unmarked) [Example 174], the concentration giving a half-maximal response (EC50) was in the range of 1 to 10 µM.
On to `CCOC(=O)CC(C)NC(=O)Nc1ccc(-n2[nH]c3c(nnc4ccccc43)c2=O)cc1` (centres unmarked) [Example 175], for which the EC50 lay within 1 to 10 µM.
As to `CCN(CC)CCCNC(=O)c1ccc(-n2[nH]c3c(nnc4ccccc43)c2=O)cc1` [Example 176], the half-maximal effective concentration (EC50) is below 1 µM.
Take `CCCCNC(=O)Nc1ccc(-n2[nH]c3c(nnc4ccccc43)c2=O)cc1` [Example 177]: the EC50 fell in the range of 1 to 10 µM.
